# Measured values: patent US20250051395A1, “PEPTIDES AND METHODS FOR USE IN TREATING PAIN” (TAFALGIE THERAPEUTICS, priority 2021, published 2025)
# Tests used:
# [1] = tested on: carrageenan model (inflammatory pain), C57Bl6 mice; experiment: Carrageenan injection inflammatory pain model, Von Frey paw withdrawal threshold; format: in vivo; details: celecoxib subcutaneous, 20 mg/kg
# Experimental: Inventors injected 20 μl of 1% λ-carrageenan (Sigma-Aldrich, 22049-5G-F) in 1×PBS into the plantar surface of the left hind paw of the mouse with a Hamilton syringe. The carrageenan injection was used as an inflammatory pain model.
# (§1) The Von Frey's uses Von Frey (VF) hair or fibers, which are small pieces of nylon rod, approximately 50 mm in length to test a rodent's sensitivity to a mechanical stimulus. In this test, the animal stands on an elevated mesh platform, and the Von Frey hairs are inserted through the mesh to poke the animal's hindpaw. Normal reactions for the animal include withdrawing or licking or shaking the paw. The “up-down” Von Frey method is used to determine the mechanical force required to elicit a paw withdrawal response in 50% of animals. Here, mice were placed in plastic chambers on a wire mesh grid and stimulated with von Frey filaments (Bioseb) by the “up-down” method (45) starting with a 1 g filament, and using 0.04 and 4 g filaments as the cutoffs.
# The experiments were conducted on eight-week-old male WT C57Bl6. Three groups of 8 mice were used.
# As previously described, measurement with Von Frey filaments by the up/down method for determining the baseline was done. Then, an intraplantar injection of 20 μl of carrageenan (1%) was performed into a hind paw. […] Celecoxib is a well-known drug used as positive control.
# [2] = tested on: paw incision model (postoperative pain), C57Bl6 mice; experiment: Paw incision (Brennan) postoperative pain model, Von Frey paw withdrawal threshold, curative treatment; format: in vivo; details: morphine oral, 1 mg/kg, D1 after paw incision
# Experimental: Mice were anesthetized with ketamine (100 mg/kg IP) and xylazine (10 mg/kg IP) and a longitudinal incision was made through the skin and fascia of the right hind paw. Forceps were used to elevate the flexor digitorum brevis muscle longitudinally and an incision was made through the muscle with a scalpel, to cut it into two halves. The wound was closed with sutures, and the animals were allowed to recover and returned to their cages. The paw incision was used as postoperative pain model.
# as §1
# The experiments were conducted on eight-week-old male WT C57Bl6. Three groups of 8 mice were used. […]
# [3] = tested on: Spared Nerve Injury (SNI) model, C57Bl6 mice; experiment: Spared Nerve Injury (SNI) model of neuropathic pain, Von Frey up-down paw withdrawal threshold; format: in vivo; details: for antalgic effect when administered orally: per os, 7 days after surgery, vs vehicle (FIG. 5)
# Experimental: Mice were anesthetized with ketamine (100 mg/kg IP) and xylazine (10 mg/kg IP) and the left sciatic nerve was exposed under aseptic conditions. The distal trifurcation of the sciatic nerve was identified and the tibial and common peroneal branches were ligated with polypropylene nonabsorbable 6-0 sutures (Ethicon); 1 mm was cut out, leaving the sural branch intact. The wound was closed with sutures, and the animals were allowed to recover and returned to their cages.
# as §1
# The experiments were conducted on eight-week-old male WT C57Bl6 mice. Three groups of 8 mice were used. Peptide of SEQ ID NO: 1 is resuspended in 0.9% NaCl at [0.6 mg/mL]. The peptide was diluted and used at a concentration of 0.3 mg/kg in this study.
# After having measured the base threshold of mice with Von Frey (VF) filaments by the up/down method, the SNI model is set into place. The mice are anesthetized, ligature of the tibial nerve and of the fibular nerve is put into practice and these two nerves are then severed. The sural nerve left intact develops neuropathy quite rapidly. The occurrence of neuropathy is ascertained after 3 days post-surgery. A decrease in the response threshold to Von Frey filaments of the ipsilateral paw is thereby observed.
# 7 days after surgery, the response threshold is again measured. 100 μl/10 g of each of the peptide solutions, of vehicle and pregabalin solution are then blind-injected subcutaneously for the experimenter.
# The same protocol was used as described in 1.1 except that the administration of the peptide, vehicle and pregabalin was done 14 days after surgery using per os administration for the peptide and vehicle.
# For per os administration, the peptide of SEQ ID NO: 1 was diluted at a concentration of 30 μg/mL in a solution of 1% w/v Hydroxypropylmethylcellulose (Sigma-aldrich #423238, batch MKCD3665), 0.5% v/v Tween 80 (Euromedex #2002-A, batch 100412/16S407), referred then after as HPMC solution (vehicle).
# Vehicle and peptide solution were orally administered using two gavage needles. […]
# [4] = tested on: injury-induced mechanical hypersensitivity in mice; details: cited from earlier work
# [5] = pregabalin 5 mg/kg by gavage, day 14 post-SNI
compound,measurement,setting,value
Cc1ccc(-c2cc(C(F)(F)F)nn2-c2ccc(S(N)(=O)=O)cc2)cc1 [celecoxib],time of maximum antalgic effect,[1],2 h
CN1CC[C@]23c4c5ccc(O)c4O[C@H]2[C@@H](O)C=C[C@H]3[C@H]1C5 [morphine],response threshold,[2],increase in the response threshold
"CC(C)C[C@H](CN)CC(=O)O [pregabalin, reference compound]",effect on mechanical threshold at 4 h post-administration,[3]; [5],completely abolished
same,time of maximum reversal effect on mechanical threshold,[3]; [5],2 h
"TAFA-4 full length protein: human TAFA-4 mature protein of 105 amino acid residues, secreted neurokine of the prior art","mechanical hypersensitivity (inflammatory, post-operative, nerve injury-induced)","[4]; intrathecal and subcutaneous administration, male and female mice","reverses inflammatory, post-operative and nerve injury-induced mechanical hypersensitivity"
same,prolonged nerve injury-induced mechanical hypersensitivity of TAFA-4 gene deleted mice,"[4]; intrathecal injection, TAFA-4 gene deleted mice",reversed
same,antalgic effect when administered orally,[3],did not show significant antalgic effect
same,antalgic effect when administered orally,[3]; listed as TAFA4,No statistical differences
